Data reported in publication PMC6366404, “4-(3-Nitrophenyl)thiazol-2-ylhydrazone derivatives as antioxidants and selective hMAO-B inhibitors: synthesis, biological activity and computational analysis” (Journal of Enzyme Inhibition and Medicinal Chemistry, 2019).
Read-outs that look alike come from different tables or passages of the source.

Experiments:
[1] = ABTS radical cation scavenging activity
Procedure: (§1) The scavenging activity of the compounds on the ABTS radical cation [ABTS,2,2′-azino-bis(3-ethylbenzothiazoline)-6-sulphonic acid] was measured according to the method of Zengin et al.[37] with slight modification. Briefly, ABTS^+ was produced directly by reacting a 7 mM ABTS solution with 2.45 mM potassium persulphate and allowing the mixture to incubate for 12–16 h in the dark at room temperature. Prior to initiating the assay, the ABTS solution was diluted with methanol to an absorbance of 0.700 ± 0.02 at 734 nm. The sample solution (1 ml) was added to the ABTS^+ solution (2 ml) and mixed, and the sample absorbance was recorded at 734 nm after 30 min incubation at room temperature. The corresponding IC50 value, which is the effective concentration at which 50% of DPPH/ABTS radicals are scavenged, was calculated for each compound and trolox, as a reference drug.

[2] = Metal chelating activity on ferrous ions; conditions: ferrozine
Procedure: Metal chelating activity on ferrous ions was evaluated by the method previously described. Briefly, the sample solution (2 ml) was added to FeCl2 solution (0.05 ml, 2 mM). The reaction was initiated by the addition of 5 mM ferrozine (0.2 ml). Similarly, a blank was prepared by adding the sample solution (2 ml) to FeCl2 solution (0.05 ml, 2 mM) and water (0.2 ml) without ferrozine. Then, the sample and blank absorbance were recorded at 562 nm after incubation for 10 min at room temperature. The absorbance of the blank was subtracted from that of the sample. EDTA was used as a positive control and this property was expressed as IC50 value for each compound.

[3] = Cupric ion reducing activity (CUPRAC)
Procedure: The cupric ion reducing activity (CUPRAC) was determined according to the method of Zengin et al.[38]. The sample solution (0.5 ml) was added to a premixed reaction mixture containing CuCl2 (1 ml, 10 mM), neocuproine (1 ml, 7.5 mM), and NH4Ac buffer (1 ml, 1 M, pH 7.0). Similarly, a blank was prepared by adding the sample solution (0.5 ml) to a premixed reaction mixture (3 ml) without CuCl2. The absorbances of the sample and blank were subsequently recorded at 450 nm after 30 min incubation at room temperature. The absorbance of the blank was subtracted from that of the sample.
(§2) The FRAP (ferric reducing antioxidant power) assay was carried out as described by Zengin et al.[38]. The sample solution (0.1 ml) was added to the premixed FRAP reagent (2 ml) containing acetate buffer (0.3 M, pH 3.6), 2,4,6-tris(2-pyridyl)-s-triazine (10 mM) in 40 mM HCl, and ferric chloride (20 mM) in a ratio of 10/1/1 (v/v/v). The absorbance of the sample was subsequently recorded at 593 nm after 30 min incubation at room temperature. Both results were expressed as EC50 values, using trolox as a reference drug.

[4] = DPPH radical scavenging activity
Procedure: The radical scavenging effect of the compounds using the 1,1-diphenyl-2-picrylhydrazyl (DPPH) radical was estimated according to Zengin et al.[36]. The sample solution (1 ml) was added to 4 ml of a 0.004% solution of DPPH in methanol. The sample absorbance was recorded at 517 nm after 30 min incubation at room temperature in the dark.
as §1

[5] = target: T1, hMAO-A (Homo sapiens, UniProt P21397); assay: hMAO-A inhibition, IC50 determination (kynuramine fluorescence); type: biochemical
T1 sequence (P21397 1-527): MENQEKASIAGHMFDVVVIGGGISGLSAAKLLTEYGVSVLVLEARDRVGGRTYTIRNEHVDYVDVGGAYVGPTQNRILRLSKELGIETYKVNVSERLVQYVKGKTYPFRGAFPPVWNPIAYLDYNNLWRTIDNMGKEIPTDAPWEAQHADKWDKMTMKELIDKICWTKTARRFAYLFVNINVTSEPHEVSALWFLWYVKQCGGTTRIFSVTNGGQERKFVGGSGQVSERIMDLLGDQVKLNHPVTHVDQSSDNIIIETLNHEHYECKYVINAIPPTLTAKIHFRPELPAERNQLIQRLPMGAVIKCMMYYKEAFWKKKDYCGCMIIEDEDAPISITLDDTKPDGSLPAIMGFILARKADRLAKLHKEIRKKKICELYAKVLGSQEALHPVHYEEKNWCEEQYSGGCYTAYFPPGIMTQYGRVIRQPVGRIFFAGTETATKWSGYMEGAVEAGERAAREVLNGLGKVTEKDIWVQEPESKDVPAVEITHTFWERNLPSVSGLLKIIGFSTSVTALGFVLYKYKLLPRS
Procedure: (§3) The procedure for the measurement of IC50 values for the inhibition of MAO has been reported. The enzyme reactions were prepared to a volume of […] in potassium phosphate buffer at pH 7.4 (100 mM, made isotonic with KCl) and contained kynuramine (50 μM) and the test inhibitors (0.003–100 µM). Stock solutions of the test inhibitors were prepared in DMSO and added to the reactions to yield 4% DMSO. The enzyme reactions were initiated with the addition of recombinant hMAO-A (0.0075 mg protein/mL) or hMAO-B (0.015 mg protein/mL) and incubated for 20 min at 37 °C. At endpoint, the reactions were terminated with 80 µL sodium hydroxide (2N) and the fluorescence of 4-hydroxyquinoline, the oxidation product of kynuramine, was measured (λex = 310; λem = 400 nm)[33]. 4-Hydroxyquinoline was quantified with a calibration curve (0.047–1.56 μM) and the rate of 4-hydroxyquinoline formation was fitted to the one site competition model of the Prism 5 software package (GraphPad). From the resulting sigmoidal plots, the IC50 values were estimated. All enzyme reactions were carried out in triplicate and IC50 values are given as the mean ± standard deviation (SD).

[6] = Phosphomolybdenum assay (PhosphoMo), total antioxidant activity; conditions: concentration at which absorbance was 0.5
Procedure: The total antioxidant activity of the compounds was evaluated by phosphomolybdenum method according to Zengin et al.[35]. The sample solution (0.3 ml) was combined with 3 ml of reagent solution (0.6 M sulphuric acid, 28 mM sodium phosphate, and 4 mM ammonium molybdate) and the absorbance was recorded at 695 nm after 90 min incubation at 95 °C. The EC50, which is the effective concentration at which the absorbance was 0.5, was calculated for each compound and trolox, as a reference drug.

[7] = FRAP (ferric reducing antioxidant power) assay
Procedure: as §2

[8] = target: T2, hMAO-B (Homo sapiens, UniProt P27338); assay: hMAO-B inhibition, IC50 determination (kynuramine fluorescence); type: biochemical
T2 sequence (P27338 1-520): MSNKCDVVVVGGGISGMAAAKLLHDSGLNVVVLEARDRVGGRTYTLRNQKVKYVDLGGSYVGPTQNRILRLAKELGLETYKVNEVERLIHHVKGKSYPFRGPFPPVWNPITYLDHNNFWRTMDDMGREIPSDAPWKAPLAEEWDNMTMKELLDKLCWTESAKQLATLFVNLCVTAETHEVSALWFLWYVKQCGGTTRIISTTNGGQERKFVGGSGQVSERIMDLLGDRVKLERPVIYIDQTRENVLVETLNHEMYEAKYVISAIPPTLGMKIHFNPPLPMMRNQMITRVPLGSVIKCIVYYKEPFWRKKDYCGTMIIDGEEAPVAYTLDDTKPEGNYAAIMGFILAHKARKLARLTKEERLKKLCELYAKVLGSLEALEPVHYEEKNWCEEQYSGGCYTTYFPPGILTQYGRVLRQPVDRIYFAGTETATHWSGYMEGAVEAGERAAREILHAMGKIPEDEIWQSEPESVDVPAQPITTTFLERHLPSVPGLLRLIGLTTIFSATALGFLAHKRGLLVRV
Procedure: as §3

[9] = target: T2, hMAO-B; assay: Lineweaver-Burk plots, mode of inhibition and Ki; type: biochemical
Procedure: To construct Lineweaver–Burk plots, the enzyme reactions were carried out to a volume of 500 µL and the concentration of MAO-B was 0.015 mg protein/mL. All enzyme reactions and activity measurements were carried out as described above for the dialysis experiments. The first plot was constructed in the absence of inhibitor, while the remaining five plots were constructed in the presence of the following concentrations: ¼ × IC50, ½ × IC50, ¾ × IC50, 1 × IC50 and 1¼ × IC50. For each line, kynuramine was used at concentrations of 15–250 μM. The Ki value was estimated from a plot of the slopes of the Lineweaver–Burk plots versus inhibitor concentration (x-axis intercept equals –Ki).
To provide further support for the reversibility of MAO-B inhibition by compounds 4 and 37, a set of Lineweaver–Burk plots was constructed for each inhibitor at the following inhibitor concentrations: ¼ × IC50, ½ × IC50, ¾ × IC50, 1 × IC50, and 1¼ × IC50. The substrate, kynuramine, was used at 15–250 µM for each line. […] The lines of the plots intersect on the y-axis and a replot of the slopes versus inhibitor concentration yields a linear line, from which the enzyme-inhibitor dissociation constant (Ki) was estimated (Ki = −x-axis intercept).

[10] = target: T2, hMAO-B; assay: Reversibility of MAO-B inhibition by dialysis; type: biochemical
Procedure: Stock solutions of the test compounds were prepared in DMSO and added to the incubations to yield 4% DMSO. The samples were dialyzed for 24 h at 4 °C in 80 ml of dialysis buffer using Slide-A-Lyzer® dialysis cassettes (Thermo Scientific) with a molecular weight cut-off of 10,000 and a sample volume capacity of 0.5–3 ml. The dialysis buffer was replaced at 3 and 7 h after the start of dialysis. Following dialysis, the dialysis samples were diluted twofold with the addition of kynuramine to yield a kynuramine concentration and inhibitor concentration of 50 µM and 2 × IC50, respectively. The reactions (500 µL) were incubated for 20 min at 37 °C and terminated with NaOH (400 μL, 2 N) and water (1000 µL). The fluorescence of 4-hydroxyquinoline in these samples was measured as described for the IC50 determination above. […] Undialysed mixtures of MAO-B and the test inhibitors were maintained at 4 °C for 24 h and diluted and assayed as above. All reactions were carried out in triplicate and the residual enzyme catalytic rates are expressed as mean ± SD.
Reversibility of MAO inhibition is an important factor to consider when evaluating the inhibition properties of potential inhibitors. Irreversible MAO inhibitors, particularly of the MAO-A isoform, are associated with dangerous adverse effects such as the cheese reaction, which occurs when irreversible MAO-A inhibitors are taken with tyramine-rich food[51]. […] The samples were diluted twofold and the residual MAO-B activity was measured. For reversible inhibition, dialysis is expected to reverse inhibition by the test inhibitors and restore enzyme activity to the level of the negative control. […] A final experiment consisted of incubations containing MAO-B and tested inhibitors which were not dialyzed, but maintained for 24 h.

SMILES: O=[N+]([O-])c1cccc(-c2csc(NN=Cc3cccs3)n2)c1 [Compound 3, 1-(4-(3-Nitrophenyl)thiazol-2-yl)-2-(thiophen-2-ylmethylene)hydrazine]
- IC50 [1]: 1050 ± 10 µM
- IC50 [2]: > 5000 µM
- EC50 [3]: 590 ± 10 µM
- IC50 [4]: 1190 ± 10 µM
- IC50 [5]: 57.2 µM
- EC50 [6]: 1840 ± 180 µM
- EC50 [7]: 410 ± 20 µM
- Selectivity index (SI) for the MAO-B isoform ([8]; ratio (IC50 hMAO-A)/(IC50 hMAO-B)): 8412

SMILES: CC(=NNc1nc(-c2cccc([N+](=O)[O-])c2)cs1)c1ccc2ccc3ccccc3c2c1 [Compound 34, 1-(4-(3-Nitrophenyl)thiazol-2-yl)-2-(1-(phenanthren-3-yl)ethylidene)hydrazine]
- IC50 ([5]; recombinant hMAO-A, kynuramine 50 μM, 20 min, 37 °C, read-out: IC50 hMAO-A): 101 µM
- melting point: 255 to 257 °C
- IC50 ([8]; recombinant hMAO-B, kynuramine 50 μM, 20 min, 37 °C, read-out: IC50 hMAO-B): 80.5 µM

SMILES: Nc1cccc(-c2csc(N/N=C/c3cccs3)n2)c1 [Compound 37]
- Ki [9]: 1.84 µM
- Mode of MAO-B inhibition ([9]; Lineweaver-Burk plots): competitive
- Reversibility of MAO-B inhibition ([10]; dialysis 24 h): fully reversible
- Residual MAO-B activity, undialysed mixtures ([10]; inhibitor at 4 × IC50, not dialyzed, maintained 24 h): 20%
- Residual MAO-B activity after dialysis ([10]; inhibitor at 4 × IC50, preincubated 15 min, dialyzed 24 h, relative to negative control): 97%
- IC50 [8]: 2.67 µM
